# Results from patent US7858637B2, “Administration of TLR7 ligands and prodrugs thereof for treatment of infection by hepatitis C virus” (priority 2003, dated 2010).
# Like-named read-outs stand apart in the source and are kept apart here.
# What was measured:
# [1] = cited from earlier work
# human TLR7 = target: T1, human TLR7 (Homo sapiens, UniProt Q9NYK1); test: HEK293-hTLR7 NF-kB luciferase reporter (C23) assay; details: read-out: mean fold induction of luciferase activity compared to the no drug control
# T1 sequence (Q9NYK1 27-1049): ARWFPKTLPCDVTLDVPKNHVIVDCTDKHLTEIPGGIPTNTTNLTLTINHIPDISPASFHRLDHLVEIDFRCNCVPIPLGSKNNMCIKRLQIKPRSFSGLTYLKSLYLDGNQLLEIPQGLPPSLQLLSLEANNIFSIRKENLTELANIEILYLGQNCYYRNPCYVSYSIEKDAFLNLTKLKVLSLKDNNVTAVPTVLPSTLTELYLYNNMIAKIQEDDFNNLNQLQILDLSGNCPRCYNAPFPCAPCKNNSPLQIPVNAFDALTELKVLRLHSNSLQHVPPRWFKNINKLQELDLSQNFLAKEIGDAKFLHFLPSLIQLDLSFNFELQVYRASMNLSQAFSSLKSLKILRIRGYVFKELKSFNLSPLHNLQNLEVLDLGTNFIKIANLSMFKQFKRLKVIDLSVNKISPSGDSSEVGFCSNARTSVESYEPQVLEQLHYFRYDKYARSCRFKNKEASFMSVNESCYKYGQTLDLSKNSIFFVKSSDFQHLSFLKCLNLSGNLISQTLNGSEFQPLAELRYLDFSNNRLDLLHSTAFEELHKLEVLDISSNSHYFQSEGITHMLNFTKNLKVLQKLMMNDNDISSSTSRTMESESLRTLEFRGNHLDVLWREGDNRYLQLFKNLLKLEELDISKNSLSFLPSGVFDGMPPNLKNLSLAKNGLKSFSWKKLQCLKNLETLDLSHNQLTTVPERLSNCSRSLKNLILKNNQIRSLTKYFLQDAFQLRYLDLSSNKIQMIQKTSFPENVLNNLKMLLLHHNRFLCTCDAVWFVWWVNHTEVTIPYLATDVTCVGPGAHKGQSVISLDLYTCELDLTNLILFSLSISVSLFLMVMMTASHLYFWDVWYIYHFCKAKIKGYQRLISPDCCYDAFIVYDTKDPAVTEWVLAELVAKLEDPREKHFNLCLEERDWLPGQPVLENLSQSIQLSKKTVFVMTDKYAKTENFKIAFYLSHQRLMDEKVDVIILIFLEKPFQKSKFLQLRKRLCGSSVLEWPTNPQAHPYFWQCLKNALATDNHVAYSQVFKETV
# Method: A stable HEK293-hTLR7 cell line was obtained from Invivogen (San Diego, Calif.), transfected with pNiFty2-Luc, an NF-kB inducible luciferase reporter plasmid (Invivogen) and (dual) stable transfectants selected. The resultant dual (hTLR7/pNiFty2-Luc) cell lines were functionally tested by response to loxoribine and isatoribine as measured by fold luciferase induction relative to a no drug control. […] See, e.g., Hemmi H. et al., Nat.
# For a typical C23 assay, cells are seeded at 6×10^4 cells/well in 96 well plates and 4-24 hours later are treated with various concentrations of compound. After 2-48 hours exposure the cell monolayers are lyzed with passive lysis buffer (Promega) and the firefly luciferase assay carried out using the luciferase assay reagent (Promega) as specified by the manufacturer. Relative luciferase activities are expressed as folds of induction compared to the no drug control. A two-fold induction over background is considered a bona fide TLR7 agonist, dependent on this being a statistically significant increase.
# In Table 1, isatoribine, was added to C23 cells for forty-eight hours, and the cells were then harvested and assayed for luciferase activity. Each time-point was assayed in triplicate.
# Each time-point was assayed in triplicate.
# HCV replicon = test: HCV replicon-based viral bioassay with supernatants of compound-treated PBMC; format: cell-based, hepatitis C virus
# Method: A quantitative assay was developed which is based on measuring the activity of the luciferase reporter gene that was integrated into an HCV replicon. By using this system, interferons from TLR7 agonist-treated PBMCs were measured and their inhibitory activity was assessed using the luciferase reporter replicon.
# Human PBMCs isolated from a healthy donor were placed in replicate cell culture wells (5×10^6 cells per well). The PBMCs are incubated in the absence of test compounds at 37° C. in a humidified atmosphere containing 5% CO2 for 24 hours to allow stabilization to the culture conditions, and then the TLR7 ligand or a drug free control is added to replicate wells containing PBMCs from the same donor. The concentrations of TLR7 ligand may be varied to suit the particular experiment, and the PBMC cultures are then incubated at 37° C. in a humidified atmosphere containing 5% CO2 for eight hours. Samples of cell culture supernatant are taken at the eight hour time point (or twenty four hour time point in case of Loxoribine and its prodrugs) from TLR7 ligand treated and control wells and are assayed for interferon-alpha production by ELISA. Supernatants from compound-treated cells and a no-drug control were diluted at 1:10, 1:100, and 1:1000 in RPMI media and applied to a 96-well plate of Huh7 hepatocyte cells containing the luciferase reporter replicon. Cells were incubated for 48 hours at 37° C. in a tissue culture incubator.
# After the incubation period, the 96-well plates are washed 2× with PBS and are lysed with passive lysis buffer (Promega). Plates are shaken at room temperature for 20 minutes and standard luciferase assay reagent (Promega) is added to each well by injection and the plate is read on an Lmax luminometer (Molecular Devices).
# A supernatant collected from PBMC cells non-exposed to the compound and diluted as specified in the first column was used as a control (“Blank supernatant”). The PBMC cells were isolated from a single blood donor as specified.
smiles,measurement,setting,value
"Nc1nc2c(sc(=O)n2[C@@H]2O[C@H](CO)[C@@H](O)[C@H]2O)c(=O)[nH]1 [Compound 21, 7-thia-8-oxoguanosine]",Emesis or loose stool,"[1]; dog, in vivo, po, 2.5 mg/kg",Neg.
same,GI lesions or irritation,"[1]; dog, in vivo, po, 2.5 mg/kg",Neg.
same,Emesis or loose stool,"[1]; dog, in vivo, po, 5 mg/kg",+
same,GI lesions or irritation,"[1]; dog, in vivo, po, 5 mg/kg",Neg.
same,Emesis or loose stool,"[1]; dog, in vivo, po, 10 mg/kg",++
same,GI lesions or irritation,"[1]; dog, in vivo, po, 10 mg/kg",++
same,"multiple, scattered red lesions on the intestinal mucosa (gross histopathologic evaluation of the GI tract)","[1]; dog, in vivo, po, 10 mg/kg",four of eight dogs
same,NOAEL,"[1]; dogs, orally administered, established by the GI effects",5 mg/kg
same,fold induction at 50 µM,human TLR7,3.1
same,fold induction at 100 µM,human TLR7,3.4
same,fold induction at 250 µM,human TLR7,6.2
same,fold induction at 500 µM,human TLR7,10.9
same,HCV replicon inhibition,"HCV replicon; Table 3 No. 1, PBMC exposed 8 hours to 100 μM, donor FL72035, supernatant dilution 1:100",100%
same,HCV replicon inhibition,"HCV replicon; Table 3 No. 1, PBMC exposed 8 hours to 100 μM, donor FL72035, supernatant dilution 1:1000",94%
same,HCV replicon inhibition,"HCV replicon; Table 3 No. 2, PBMC exposed 8 hours to 100 μM, donor FL75287, supernatant dilution 1:10",100%
same,HCV replicon inhibition,"HCV replicon; Table 3 No. 2, PBMC exposed 8 hours to 100 μM, donor FL75287, supernatant dilution 1:100",87%
same,HCV replicon inhibition,"HCV replicon; Table 3 No. 2, PBMC exposed 8 hours to 100 μM, donor FL75287, supernatant dilution 1:1000",6%
same,HCV replicon inhibition,"HCV replicon; Table 3 No. 3, PBMC exposed 24 hours to 100 μM, donor FL75864, supernatant dilution 1:10",100%
same,HCV replicon inhibition,"HCV replicon; Table 3 No. 3, PBMC exposed 24 hours to 100 μM, donor FL75864, supernatant dilution 1:100",99%
same,HCV replicon inhibition,"HCV replicon; Table 3 No. 3, PBMC exposed 24 hours to 100 μM, donor FL75864, supernatant dilution 1:1000",64%
